Data on 15 molecules can be found in ChEMBL document CHEMBL5131393 (J Med Chem, 2021).

Experiment [1] addresses Human immunodeficiency virus type 1 reverse transcriptase (Human immunodeficiency virus 1) (UniProt Q72547). As to the kind of experiment: Potency index, ratio of test compound IC50 to NBD-14189 IC50 for inhibition of recombinant HIV-1 reverse transcriptase incubated for 2 hrs by colorimetric assay.
Experiment [2] concerns TZM. As to the kind of experiment: Cytotoxicity against human TZM-bl cells assessed as reduction in cell viability measured after 3 days by XTT assay. It is filed as functional. The note with it: 72 h, time 3 day.
Experiment [3] concerns Human immunodeficiency virus 1. In words: Antiviral activity against HIV-1 pseudovirus infected in human TZM-bl cells preincubated with virus for 30 mins followed by cell infection and measured after 3 days by luciferase assay. It is filed as functional, organism-based. The note with it: Human immunodeficiency virus 1, TZM-bl.
Experiment [4] deals with Human immunodeficiency virus type 1 reverse transcriptase (Human immunodeficiency virus 1, UniProt Q72547). In words: Inhibition of recombinant HIV-1 reverse transcriptase incubated for 2 hrs by colorimetric assay.

As to `Cc1nc(C(CNC2CCC2)NC(=O)c2ccc(-c3ccc(Cl)cc3)[nH]2)sc1CO` (single isomer, unassigned), in experiment [1], the Ratio IC50 amounted to 31. For the same molecule, the CC50 in experiment [2] amounted to 24 µM. This molecule also gave an EC50 in experiment [3] of 2.2 µM. Further, in experiment [4], the IC50 was 43.4 µM.

For the molecule `Cc1ccc(-c2ccc(C(=O)N[C@H](CN)c3ncc(CO)s3)[nH]2)cc1F`, in experiment [2], the CC50 was 38.8 µM. Besides, the EC50 in experiment [3] was found to be 0.45 µM. In addition, the IC50 in experiment [4] came to 7.2 µM.

Regarding `Cc1nc([C@H](CN)NC(=O)c2ccc(-c3ccc(Cl)c(F)c3)[nH]2)sc1CO`, the CC50 in experiment [2] was 40.5 µM. In addition, the IC50 in experiment [4] was found to be 8.3 µM.

For `CNCc1cc(-c2ccc3c(c2)OCO3)[nH]c1C(=O)NCc1nc(S)c(CO)s1`, the CC50 in experiment [2] was 95.8 µM. The EC50 in experiment [3] is 2.7 µM.

Take `NC[C@@H](NC(=O)c1ccc(-c2ccc(C(F)(F)F)cn2)[nH]1)c1ncc(C(O)CO)s1` (stereo partly drawn): in experiment [2], the CC50 was above 113 µM. The molecule also showed an EC50 in experiment [3] of 2.1 µM.

For `Cc1nc([C@@H](CN)NC(=O)c2ccc(-c3ccc(F)c(F)c3)[nH]2)sc1CO`, the CC50 in experiment [2] amounted to 84.1 µM. This molecule also registered an EC50 in experiment [3] of 3.3 µM.

With `Cc1cc(-c2ccc(C(F)(F)F)cn2)[nH]c1C(=O)N[C@H](CN)c1nc(CO)cs1`, in experiment [2], the CC50 came out at 85 µM. Besides, in experiment [4], the IC50 came out at 5 µM.

As to `NC[C@H](NC(=O)c1ccc(-c2ccc(C(F)(F)F)cc2)[nH]1)c1nc(CO)cs1`, the CC50 in experiment [2] was 21.9 µM. Moreover, the EC50 in experiment [3] stood at 0.089 µM. In addition, in experiment [4], the concentration for half-maximal inhibition (IC50) was determined as 1.5 µM.

With `NC[C@H](NC(=O)c1ccc(-c2ccc(C(F)(F)F)cn2)[nH]1)c1nc(CO)cs1`, in experiment [2], the CC50 is 124 µM. The EC50 in experiment [3] came out at 0.3 µM. Further, the IC50 in experiment [4] stood at 2.8 µM.

Regarding `CC1(C)CC(NC(=O)C(=O)Nc2ccc(Cl)cc2)CC(C)(C)N1`, the CC50 in experiment [2] stood at 60 µM. Besides, in experiment [4], the IC50 is above 200 µM.

With `NCc1cc(-c2ccc3c(c2)OCO3)[nH]c1C(=O)NC(CO)c1nc(S)cs1` (stereo not drawn), the CC50 in experiment [2] came out at 142 µM. For the same molecule, in experiment [3], the midpoint of the response, the EC50, lay at 4.3 µM. For the same molecule, the IC50 in experiment [4] was 39.5 µM.

For the molecule `NC[C@H](NC(=O)c1ccc(-c2cc(F)c(Cl)c(F)c2)[nH]1)c1ncc(CO)s1`, in experiment [2], the cytotoxic concentration (CC50) amounted to 39.5 µM. The IC50 in experiment [4] amounted to 8.4 µM.

On to `Cc1sc(C(CO)NC(=O)c2[nH]c(-c3ccc4c(c3)OCO4)cc2CN)nc1S` (stereo not drawn), for which the CC50 in experiment [2] came to 146 µM. For the same molecule, in experiment [3], the EC50 is 2.3 µM. For the same molecule, the IC50 in experiment [4] was 30.6 µM.

As for `Cc1cc(-c2ccc(C(F)(F)F)cn2)[nH]c1C(=O)N[C@@H](CN)c1ncc(CO)s1`, the Ratio IC50 in experiment [1] stood at 2. For the same molecule, the CC50 in experiment [2] was 109 µM.

In the case of `NC[C@@H](NC(=O)c1ccc(-c2ccc(Cl)c(F)c2)[nH]1)c1ncc(CO)s1`, the CC50 in experiment [2] was 33 µM. Further, in experiment [3], the response was half-maximal at 0.57 µM (EC50). Also, the IC50 in experiment [4] turned out to be 13.7 µM.
